Laboratory results taken from patent US8716237B2, “Methods for the treatment or prevention of hemorrhagic conditions” (University of Rochester, priority 2007, dated 2014).

Experiments:
Cyld−/− mice = test: Survival of Cyld−/− mice inoculated with S. pneumoniae after pretreatment; type: in vivo, mouse; settings: SB203580 10 mg/kg intraperitoneally 2 hours before S. pneumoniae inoculation
Description: For S. pneumoniae-induced lethal infections in wild type, Cyld^−/−, Mkk3^−/−, and PAI-1^−/− mice, anaesthetized mice were intratracheally inoculated with live S. pneumoniae, S. pneumoniae wild type or pneumolysin mutant lysate, or pneumolysin (“PLY”), at a concentration of 5×10^7CFU per mouse for live bacteria and bacterial lysate and 200 ng/mouse for PLY in all experiments unless otherwise indicated, and saline was inoculated as control. The mice were monitored for lethality every 2 hours for the first 12 hours and every 12 hours for 5 days thereafter. To assess the effect of perturbing p38 MAPK signaling on S. pneumoniae-induced lethality in Cyld^−/− mice, Cyld^−/− mice were pretreated with the p38 inhibitor SB203580 (10 mg/kg, intraperitoneally in Cyld^−/− mice) 2 hours before S. pneumoniae inoculation, and mice were then intratracheally inoculated with S. pneumoniae. To determine the effect of administration of exogenous PAI-1 on S. pneumoniae-induced lethality, mice were intratracheally administered with mouse rPAI-1 (12.5 μg/mouse) or saline as control, followed by S. pneumoniae and PLY inoculation 1 day after PAI-1 administration. For PAI-1 neutralization in Cyld^−/− mice, Cyld^−/− mice were intraperitoneally injected with α-PAI-1 mAb (25 μg/mouse for histological analysis and 50 μg/mouse for lethality) 2 hours before S. pneumoniae inoculation. Mouse IgG was used as control. […] Lung tissues were then subjected to histological analysis and total mRNA and protein extraction. In all Examples, saline was used as a control unless otherwise specified.
To assess the effect of perturbing NF-κB signaling on S.p.-induced lethality in Cyld^−/− mice, Cyld^−/− mice were pretreated with the IKK inhibitor Wedelolactone (10 mg/kg, intraperitoneally) 2 hours before S.p. inoculation, and mice were then intratracheally inoculated with S.p.
Differences in survival between wild-type, Cyld-deficient (“Cyld^−/−”), Mkk3-deficient (“Mkk3^−/−”), and PAI/−/−deficient (“PAI-1^−/−”) mice after saline, S. pneumoniae, S. pneumoniae lysate, and/or pneumolysin inoculation with or without SB203580, rPAI-1, or α-PAI-1 mAb were determined by Kaplan-Meier analysis. All tests were performed using SPSS14.0 software (SPSS Inc.). All in vivo survival rate data were evaluated by Log Lank test. All other in vivo and in vitro data were evaluated by Student t-test. Statistical significance was accepted at a value of p<0.05.

PAI-1 = PAI-1 mRNA expression in mouse embryonic fibroblasts (Q-PCR); type: cell-based; settings: Cyld−/− MEF cells; pretreatment with SB203580
Description: Cells were cultured on 12-well plates and transfected with various expression plasmids, as described in Examples 1-15 and the Brief Description of the Drawings. All transient transfections were carried out in triplicate using TransIT-LT1 reagent (Minis) following the manufacturer's instructions. […] Transfected cells were pretreated with or without chemical inhibitors including SB203580 (1 μM) for 2 hours. S.p. or pneumolysin was then added to the transfected cells 42 hours after transfection. After 5 hours, the cells were harvested for either RNA extraction and real-time quantitative PCR analysis as described in the Examples or luciferase assay. Luciferase activity was normalized with respect to β-galactosidase activity using the Galacton-Plus substrate system (Tropix) following manufacturer's instruction. In all co-transfections with expression plasmids of signaling molecules, an empty vector was used as a control. […]
Total RNA was isolated with TRIzol reagent (Invitrogen) by following the manufacturer's instructions. Real-Time Quantitative RT-PCR analysis of PAI-1 and CYLD were performed as described in Jono et al., “NF-κB Is Essential for Induction of CYLD, the Negative Regulator of NF-κB: Evidence for a Novel Inducible Autoregulatory Feedback Pathway,” J. Biol. Chem. 279:36171-4 (2004), which is hereby incorporated by reference in its entirety. […]

SMILES: C[S+]([O-])c1ccc(-c2nc(-c3ccncc3)c(-c3ccc(F)cc3)[nH]2)cc1 (centres unmarked) [SB203580]
- inoculated mice died within 48 hours (Cyld−/− mice): approximately 80%
- survival (Cyld−/− mice): 20%
- time after inoculation at which mice started to die (Cyld−/− mice): 12 h
- PAI-1 expression in cells treated with PLY (PAI-1): reduced PAI-1 expression
- PAI-1 expression in cells treated with S. pneumoniae (PAI-1): reduced PAI-1 expression
